# Laboratory results reported in ChEMBL document CHEMBL1201862, “PubChem BioAssay data set” (2004).
#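 Five concentrations, 48 hours, 96-well plates. The concentration for 50% growth inhibition is given as GI50.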 Activity calls are given as the source filed them. Rule as the data show it: active = GI50 up to about 1.1 µM and inactive = higher.
# Experiments:
# Assay in all cases: growth of human tumour cells (NCI), 48 h
# [1] = system: A498
# [2] = system: HL-60
# [3] = system: HOP-62
# [4] = system: IGROV-1
# [5] = system: K562
# [6] = system: NCI-H23
# [7] = system: RPMI-8226
# [8] = system: SF-539
# [9] = system: SK-OV-3
# [10] = system: SN12C
# [11] = system: SNB-19
# [12] = system: SR
# [13] = system: TK-10
# [14] = system: UACC-257
# [15] = system: HCC 2998
# [16] = system: Hs-578T
# [17] = system: MDA-MB-231
# [18] = system: MDA-N
# [19] = system: PC-3
Compound,GI50 [1],GI50 [2],GI50 [3],GI50 [4],GI50 [5],GI50 [6],GI50 [7],GI50 [8],GI50 [9],GI50 [10],GI50 [11],GI50 [12],GI50 [13],GI50 [14],GI50 [15],GI50 [16],GI50 [17],GI50 [18],GI50 [19]
CCOC(=O)C(=O)Nc1c(C)cccc1C(C)C,> 100 µM (inactive),> 100 µM (inactive),> 100 µM (inactive),> 100 µM (inactive),> 100 µM (inactive),> 100 µM (inactive),> 100 µM (inactive),> 100 µM (inactive),> 100 µM (inactive),> 100 µM (inactive),> 100 µM (inactive),> 100 µM (inactive),> 100 µM (inactive),> 100 µM (inactive),,,,,
COc1ccc2c(c1)[n+]([O-])c(-c1ccc(Br)cc1)c(N)[n+]2[O-],> 100 µM (inactive),21.1 µM (inactive),88.3 µM (inactive),43.8 µM (inactive),39.2 µM (inactive),22.4 µM (inactive),,36.1 µM (inactive),92.7 µM (inactive),47 µM (inactive),> 100 µM (inactive),36.6 µM (inactive),,32.4 µM (inactive),,,,,
CC(=O)NC(ON1C(=O)COc2ccccc21)C(Cl)(Cl)Cl (stereo not given),,> 100 µM (inactive),> 100 µM (inactive),> 100 µM (inactive),> 100 µM (inactive),> 100 µM (inactive),> 100 µM (inactive),> 100 µM (inactive),> 100 µM (inactive),> 100 µM (inactive),> 100 µM (inactive),> 100 µM (inactive),> 100 µM (inactive),> 100 µM (inactive),> 100 µM (inactive),,,,
Cc1ccccc1NC(=O)Cc1nc2ccccc2s1,19.2 µM (inactive),9.44 µM (inactive),> 10 µM (inactive),> 10 µM (inactive),18.3 µM (inactive),14.7 µM (inactive),,18.9 µM (inactive),24.4 µM (inactive),16.6 µM (inactive),29.7 µM (inactive),13.1 µM (inactive),23.8 µM (inactive),17.1 µM (inactive),34 µM (inactive),,,,
[Zn+2][N+]12CCN3CCN4CCN(CC1)[PH]432 (stereo not given),> 100 µM (inactive),> 100 µM (inactive),> 100 µM (inactive),> 100 µM (inactive),> 100 µM (inactive),> 100 µM (inactive),> 100 µM (inactive),> 100 µM (inactive),> 100 µM (inactive),> 100 µM (inactive),> 100 µM (inactive),> 100 µM (inactive),> 100 µM (inactive),> 100 µM (inactive),> 100 µM (inactive),,,,
c1cc2nnc1SCCSCCSc1ccc(nn1)SCCSCCS2,> 100 µM (inactive),> 100 µM (inactive),31 µM (inactive),> 100 µM (inactive),> 100 µM (inactive),> 100 µM (inactive),> 100 µM (inactive),25.4 µM (inactive),> 100 µM (inactive),> 100 µM (inactive),> 100 µM (inactive),> 100 µM (inactive),> 100 µM (inactive),> 100 µM (inactive),> 100 µM (inactive),> 100 µM (inactive),40.6 µM (inactive),> 100 µM (inactive),> 100 µM (inactive)
CN(C)CCNC(=O)c1ccccc1Nc1c(Cl)cccc1Cl,,11 µM (inactive),13.7 µM (inactive),18.2 µM (inactive),13.4 µM (inactive),17.1 µM (inactive),11.9 µM (inactive),13.1 µM (inactive),13.7 µM (inactive),15.1 µM (inactive),16.1 µM (inactive),12.6 µM (inactive),8.13 µM (inactive),5.75 µM (inactive),10.6 µM (inactive),,,,
COc1ccc(C(C#N)NNC(=O)Cc2ccccc2)cc1OC (stereo not given),,> 100 µM (inactive),> 100 µM (inactive),> 100 µM (inactive),> 100 µM (inactive),> 100 µM (inactive),> 100 µM (inactive),> 100 µM (inactive),> 100 µM (inactive),> 100 µM (inactive),,> 100 µM (inactive),> 100 µM (inactive),> 100 µM (inactive),,,,,
Cc1ccc(S(=O)(=O)SCc2ccccc2)cc1,52.8 µM (inactive),2.44 µM (inactive),49.7 µM (inactive),39.1 µM (inactive),4.57 µM (inactive),19 µM (inactive),10.1 µM (inactive),23.4 µM (inactive),52.2 µM (inactive),20.8 µM (inactive),29.7 µM (inactive),28 µM (inactive),> 55.7 µM (inactive),31.9 µM (inactive),24.2 µM (inactive),,,,
CN(C)CCCN1c2ccc([N+](=O)[O-])cc2CCc2cccc([N+](=O)[O-])c21,,18.1 µM (inactive),13.8 µM (inactive),14.9 µM (inactive),14.8 µM (inactive),15.9 µM (inactive),26.1 µM (inactive),15.2 µM (inactive),14.8 µM (inactive),15.1 µM (inactive),17.5 µM (inactive),35.2 µM (inactive),11.1 µM (inactive),14.3 µM (inactive),13.5 µM (inactive),14.4 µM (inactive),13.1 µM (inactive),14.8 µM (inactive),16.7 µM (inactive)
CC1(C)OC(COCCOCCCCCO)C(COCCOCCCCCO)O1 (stereo not given),> 100 µM (inactive),> 10 µM (inactive),> 100 µM (inactive),> 100 µM (inactive),> 100 µM (inactive),> 100 µM (inactive),> 100 µM (inactive),,> 100 µM (inactive),> 100 µM (inactive),> 100 µM (inactive),> 100 µM (inactive),> 100 µM (inactive),> 100 µM (inactive),> 100 µM (inactive),,,,
COC(=O)/C(=N/NC(=O)C[N+](C)(C)C)C(C(=O)OC)C(=O)C(=O)Nc1ccc(F)cc1 (stereo not given),63.7 µM (inactive),> 100 µM (inactive),> 100 µM (inactive),> 100 µM (inactive),> 100 µM (inactive),> 100 µM (inactive),> 100 µM (inactive),> 100 µM (inactive),> 100 µM (inactive),> 100 µM (inactive),> 100 µM (inactive),> 100 µM (inactive),> 100 µM (inactive),> 100 µM (inactive),> 100 µM (inactive),,,,
CC1C(c2ccc3c(c2)OCO3)c2cc3c(cc2OC1N1CCCCC1)OCO3 (stereo not given),,,> 100 µM (inactive),56.6 µM (inactive),35.7 µM (inactive),60.8 µM (inactive),47.9 µM (inactive),50.8 µM (inactive),,> 100 µM (inactive),48.9 µM (inactive),37.8 µM (inactive),> 100 µM (inactive),> 100 µM (inactive),20 µM (inactive),35.4 µM (inactive),,20.8 µM (inactive),37.5 µM (inactive)
COc1ccccc1NC(=O)CC(=O)NNCC(=O)Nc1nnc(-c2ccccc2)o1,> 100 µM (inactive),,> 100 µM (inactive),> 100 µM (inactive),> 100 µM (inactive),> 100 µM (inactive),> 100 µM (inactive),> 100 µM (inactive),> 100 µM (inactive),> 100 µM (inactive),> 100 µM (inactive),> 100 µM (inactive),> 100 µM (inactive),> 100 µM (inactive),> 100 µM (inactive),,,,
COC(=O)c1ccc(C(=O)OC)c2nc3cc(C)ccc3nc12,> 100 µM (inactive),> 100 µM (inactive),> 100 µM (inactive),> 100 µM (inactive),> 100 µM (inactive),> 100 µM (inactive),> 100 µM (inactive),> 100 µM (inactive),> 100 µM (inactive),> 100 µM (inactive),> 100 µM (inactive),,> 100 µM (inactive),> 100 µM (inactive),> 100 µM (inactive),,,,
C[C@]12CCC[C@H](OC=O)C1(O)C[C@H](C(=O)O)CC2 (stereo not given in full),> 100 µM (inactive),> 100 µM (inactive),> 100 µM (inactive),> 100 µM (inactive),> 100 µM (inactive),> 100 µM (inactive),> 100 µM (inactive),> 100 µM (inactive),> 100 µM (inactive),> 100 µM (inactive),> 100 µM (inactive),> 100 µM (inactive),> 100 µM (inactive),> 100 µM (inactive),> 100 µM (inactive),,,,
N[C@H]1CCN(c2c(F)cc3c(=O)c(C(=O)O)cn4c3c2Oc2c-4ccc3c2ccc2ccccc23)C1,10.4 µM (inactive),4.21 µM (inactive),1.07 µM (active),0.284 µM (active),0.583 µM (active),1.22 µM (inactive),0.226 µM (active),1.25 µM (inactive),,0.774 µM (active),1.33 µM (inactive),0.0532 µM (active),0.408 µM (active),0.288 µM (active),,0.731 µM (active),4.91 µM (inactive),0.767 µM (active),0.935 µM (active)
COC(=O)/C(=N\NC(N)=O)C(C(=O)C=C(C)C)C(=O)C(=O)Nc1ccc(Cl)c(Cl)c1 (stereo not given),> 100 µM (inactive),> 100 µM (inactive),> 100 µM (inactive),> 100 µM (inactive),> 100 µM (inactive),> 100 µM (inactive),,> 100 µM (inactive),> 100 µM (inactive),> 100 µM (inactive),> 100 µM (inactive),> 100 µM (inactive),> 100 µM (inactive),> 100 µM (inactive),> 100 µM (inactive),,,,
Nc1ccc(C(=O)N/C(=C\c2cccc([N+](=O)[O-])c2)c2nc3cc(Cl)ccc3[nH]2)cc1,,,,> 100 µM (inactive),> 100 µM (inactive),> 100 µM (inactive),,> 100 µM (inactive),> 100 µM (inactive),> 100 µM (inactive),> 100 µM (inactive),> 100 µM (inactive),> 100 µM (inactive),,> 100 µM (inactive),,,,
